Data set [1] is described as follows: Phase solubility study in pH 6.8 buffer (simulated intestinal fluid) and purified water. The data set is classed as physicochemical. The conditions noted are these: for Solubility: Active content equivalent to base in pH 6.8 buffer / Solubility: Active content equivalent to base in purified water: ambient temperature (approx. 22° C.), shaken approx. 30 minutes. The procedure: In this study the solubility of Omeprazole Magnesium Trihydrate and Esomeprazole Magnesium Dihydrate active materials in pH 6.8 buffer and purified water was performed. […] A pH 6.8 buffer is prepared as described under the monograph of Omeprazole Delayed Release capsules for dissolution test in United States Pharmacopoeia. Purified water and pH 6.8 buffer were used at ambient temperature (approx. 22° C.).
Samples of actives and tablet dosage form powders were used in the study. Each sample contains approx. 200 mg base equivalent Omeprazole and Esomeprazole as salts and such samples were transferred in to a centrifuge tube containing 20 mL of appropriate medium. Centrifuge tubes containing these suspensions were shaken for approx. 30 minutes on a wrist action shaker and samples were initially filtered through Whatman filter paper and subsequently filtered through 0.45 micron PTFE cartridge filters. The samples were further diluted by pipetting 1.0 mL in to 100 mL volumetric flasks and made up to the volume with appropriate medium. The optical density values were measured using a suitable UV-Visible spectrophotometer at 275 nm wavelength.

For data set [2] the following is noted: from commercially marketed dosage forms; cited from earlier work.
For data set [3] the following is noted: 25° C., cited from earlier work.

Molecules are shown by their SMILES. Like-named read-outs stand apart in the source and are kept apart here.

For `COc1ccc2[n-]c([S+]([O-])Cc3ncc(C)c(OC)c3C)nc2c1.COc1ccc2[n-]c([S+]([O-])Cc3ncc(C)c(OC)c3C)nc2c1.O.O.O.[Mg+2]` (stereo not shown) [Omeprazole Magnesium Trihydrate], the “fold increased solubility by the fluid bed process as compared to the active when tested alone” value is reported as 4 fold in data set [1] (pH 6.8 buffer (simulated intestinal fluid)) and “approx. 10 fold” in data set [1] (purified water). The “Solubility: Active content equivalent to base in pH 6.8 buffer” value in data set [1] is recorded as 0.31 mg/mL. For the same compound, in data set [1] (purified water), the “Solubility: Active content equivalent to base in purified water” value is 260 µg/mL.

On to `COc1ccc2[nH]c([S+]([O-])Cc3ncc(C)c(OC)c3C)nc2c1` (stereo not shown) [omeprazole, 2-[2-(3,5-dimethyl-4-methoxy)-pyridylmethylsulfinyl]-(5-methoxy)-benzimidazole], for which the percent bioavailability in data set [2] is listed as 30-40%.

Regarding `COc1ccc2[n-]c([S@@+]([O-])Cc3ncc(C)c(OC)c3C)nc2c1.COc1ccc2[n-]c([S@@+]([O-])Cc3ncc(C)c(OC)c3C)nc2c1.O.O.[Mg+2]` [Esomeprazole Magnesium Dihydrate], the “Solubility: Active content equivalent to base in pH 6.8 buffer” value in data set [1] is recorded as 1.17 mg/mL. Moreover, in data set [1] (purified water), the “fold increased solubility by the fluid bed process as compared to the active when tested alone” value is given as “approx. 1.6 fold” and the “Solubility: Active content equivalent to base in purified water” value is 5020 µg/mL.

With `Cc1c(OCC(F)(F)F)ccnc1C[S+]([O-])c1nc2ccccc2[nH]1` (stereo not shown) [Lansoprazole, 2-[[[3-methyl-4-(2,2,2-trifluroethoxy)-2-pyridyl]methyl]sulfinyl]benzimidazole], the “degradation half-life in aqueous solution” value in data set [3] (pH 5.0) is “approximately 0.5 hour”; in data set [3] (pH 7.0), “approximately 18 hours”. Besides, the percent bioavailability in data set [2] is recorded as 80-85%.

On to `COc1ccnc(C[S+]([O-])c2nc3ccc(OC(F)F)cc3[nH]2)c1OC` (stereo not shown) [Pantoprazole], for which the percent bioavailability in data set [2] is 77%.

Take `COCCCOc1ccnc(C[S+]([O-])c2nc3ccccc3[nH]2)c1C` (stereo not shown) [Rabeprazole]: the percent bioavailability in data set [2] is 52%.

The record behind these values is patent publication US20070026071A1, “Magnesium salt proton pump inhibitor dosage forms” (QPharma, LLC, priority 2005, published 2007).
